Laboratory results as given in patent US8481497B2, “Therapeutic agent for cancer, and method for treatment of cancer” (Sapporo Medical University, priority 2007, dated 2013).

Tests used:
[1] = system: FGFR1 in KMS12BM cells; assay: FGFR1 expression at mRNA level in multiple myeloma cell line by DNA array; type: cell-based; details: 1 micro M decitabine (72 hours) and/or 0.5 micro g/mL ADR (24 hours)
Method: Using a DNA array, 1 micro M decitabine and/or 0.5 micro g/mL ADR was administered to KMS12BM cells and a change in expression of FGFR1 at the mRNA level was examined 72 hours after administration of decitabine and 24 hours after administration of ADR. In the graph, the expression level ratio relative to the expression level in the cell line to which no drug was administered is shown on the vertical axis. In the graph, the decitabine administration group is shown by Aza.

[2] = system: FGFR1; details: human hepatic stellate cells; cited from earlier work

Row | Molecule | expression level of FGFR1 at the mRNA level [1] | expression of FGFR1 [2]
1 | COc1cccc2c1C(=O)c1c(O)c3c(c(O)c1C2=O)C[C@@](O)(C(=O)CO)C[C@@H]3O[C@H]1C[C@H](N)[C@H](O)[C@H](C)O1 [ADR, adriamycin] | increased | –
2 | interferon-gamma: type II interferon, a cytokine (protein, UniProt P01579 24-161, looked up) Interferon gamma: QDPYVKEAENLKKYFNAGHSDVADNGTLFLGILKNWKEESDRKIMQSQIVSFYFKLFKNFKDDQSIQKSVETIKEDMNVKFFNSNKKKRDDFEKLTNYSVTDLNVQRKAIHELIQVMAELSPAAKTGKRKRSQMLFRG | – | reduces
